Counter-ions that a name gives are not always drawn. Like-named read-outs stand apart in the source and are kept apart here.
Columns and labels:
PI3Kγ (p110γ) = PI3Kγ (p110γ) (Homo sapiens (Human), UniProt P48736); experiment: PI3K-γ scintillation proximity assay; format: biochemical; settings: recombinant human PI3Kγ 13 nM, 20 μM PIP2, 2 μM ATP, 120 min, room temperature
Outline: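 Recombinant human p110γ (13 nM) with 20 μM PIP2, 2 μM ATP plus [γ-33P]ATP in 20 mM MOPS pH 6.7, 10 mM MgCl2, 5 mM DTT, 0.03% CHAPS, 2% DMSO. Reaction ran 120 min at room temperature, then was quenched with EDTA and read with WGA SPA beads. IC50 came from percent-of-solvent-control curves.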

PI3Kδ (p110δ/p85α) = PI3Kδ (p110δ/p85α) (Homo sapiens (Human), UniProt O00329); experiment: PI3Kδ scintillation proximity assay; format: biochemical; settings: recombinant human PI3Kδ 3.4 nM, 20 μM PIP2, 2 μM ATP, 120 min, room temperature
PI3Kδ (p110δ/p85α), sequence (O00329 whole entry): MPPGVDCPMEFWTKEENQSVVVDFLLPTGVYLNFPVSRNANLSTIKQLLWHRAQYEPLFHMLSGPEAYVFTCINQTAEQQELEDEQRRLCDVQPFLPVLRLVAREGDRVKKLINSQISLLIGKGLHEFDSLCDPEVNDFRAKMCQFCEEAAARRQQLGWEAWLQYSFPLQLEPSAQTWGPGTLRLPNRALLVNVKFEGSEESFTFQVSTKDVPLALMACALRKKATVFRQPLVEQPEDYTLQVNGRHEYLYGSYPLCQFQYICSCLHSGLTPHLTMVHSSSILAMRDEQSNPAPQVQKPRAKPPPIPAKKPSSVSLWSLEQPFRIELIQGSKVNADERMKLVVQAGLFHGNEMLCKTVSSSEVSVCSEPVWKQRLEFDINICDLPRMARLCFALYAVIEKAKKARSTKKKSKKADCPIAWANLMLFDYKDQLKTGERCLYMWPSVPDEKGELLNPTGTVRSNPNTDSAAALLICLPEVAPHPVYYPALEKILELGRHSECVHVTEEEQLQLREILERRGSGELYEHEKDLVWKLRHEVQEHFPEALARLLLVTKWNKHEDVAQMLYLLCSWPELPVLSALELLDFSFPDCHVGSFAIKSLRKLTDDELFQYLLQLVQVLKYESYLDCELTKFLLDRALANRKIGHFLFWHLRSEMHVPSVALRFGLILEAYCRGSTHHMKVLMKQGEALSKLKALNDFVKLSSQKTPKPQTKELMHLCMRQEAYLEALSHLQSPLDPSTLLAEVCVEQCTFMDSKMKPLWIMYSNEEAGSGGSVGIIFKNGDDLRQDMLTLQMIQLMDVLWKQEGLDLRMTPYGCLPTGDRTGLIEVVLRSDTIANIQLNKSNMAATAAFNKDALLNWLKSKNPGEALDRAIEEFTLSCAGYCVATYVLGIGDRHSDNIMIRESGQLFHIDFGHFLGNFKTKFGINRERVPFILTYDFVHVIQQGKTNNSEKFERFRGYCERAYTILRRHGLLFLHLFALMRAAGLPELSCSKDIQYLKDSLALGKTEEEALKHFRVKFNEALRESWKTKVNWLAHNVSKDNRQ
PI3Kδ (p110δ/p85α), sequence (P27986 whole entry partner): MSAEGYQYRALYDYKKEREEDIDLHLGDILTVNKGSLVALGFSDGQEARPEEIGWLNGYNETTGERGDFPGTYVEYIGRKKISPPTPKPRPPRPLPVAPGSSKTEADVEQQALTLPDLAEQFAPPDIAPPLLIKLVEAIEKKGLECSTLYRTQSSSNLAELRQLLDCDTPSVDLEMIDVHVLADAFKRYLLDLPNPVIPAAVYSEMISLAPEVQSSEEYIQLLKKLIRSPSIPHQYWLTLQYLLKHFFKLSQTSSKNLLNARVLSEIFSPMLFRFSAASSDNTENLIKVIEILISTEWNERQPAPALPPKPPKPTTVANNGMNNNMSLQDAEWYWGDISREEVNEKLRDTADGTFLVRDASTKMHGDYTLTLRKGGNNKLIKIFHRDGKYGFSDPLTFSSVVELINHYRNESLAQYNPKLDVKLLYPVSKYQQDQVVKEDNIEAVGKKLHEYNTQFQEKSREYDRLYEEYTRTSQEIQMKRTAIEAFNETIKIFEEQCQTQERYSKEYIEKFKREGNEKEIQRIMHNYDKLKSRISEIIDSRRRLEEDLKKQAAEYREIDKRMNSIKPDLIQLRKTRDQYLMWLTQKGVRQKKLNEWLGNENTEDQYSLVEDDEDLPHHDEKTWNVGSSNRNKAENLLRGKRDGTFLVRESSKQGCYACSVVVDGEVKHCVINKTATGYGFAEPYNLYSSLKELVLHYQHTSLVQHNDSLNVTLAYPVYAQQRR
Outline: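 Recombinant p110δ/p85α (3.4 nM) with 20 μM PIP2, 2 μM ATP plus [γ-33P]ATP in MOPS pH 6.7, MgCl2, DTT, CHAPS, 2% DMSO; 120 min, room temperature. EDTA-quenched product captured on WGA SPA beads, scintillation counted. IC50 from percent solvent-control activity versus log inhibitor concentration.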

[1] = test system: Phosphorylated Ribosomal Protein S6 (RPS6) in THP-1 cells; experiment: THP-1 RPS6 ELISA assay; format: cell-based, Human; settings: 2 hours compound, 10 nM MCP-1 for 15 minutes, Phospho-RPS6 ELISA, read-out: PI3Kγ_THP1_RPS6_ELISA IC50
Outline: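 Phospho-RPS6 in lysates measured by ELISA at 450 nm, corrected at 540 nm, after MCP-1 challenge (10 nM, 15 min) of THP-1 cells that were starved overnight and exposed to test compound for 2 h at 37° C, 2×10^5 cells/well. Curve fit of percent inhibition gives IC50.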

[2] = Homo sapiens, THP-1, serum starved THP-1 cells

PI3Kγ (p110γ), sequence (P48736 whole entry): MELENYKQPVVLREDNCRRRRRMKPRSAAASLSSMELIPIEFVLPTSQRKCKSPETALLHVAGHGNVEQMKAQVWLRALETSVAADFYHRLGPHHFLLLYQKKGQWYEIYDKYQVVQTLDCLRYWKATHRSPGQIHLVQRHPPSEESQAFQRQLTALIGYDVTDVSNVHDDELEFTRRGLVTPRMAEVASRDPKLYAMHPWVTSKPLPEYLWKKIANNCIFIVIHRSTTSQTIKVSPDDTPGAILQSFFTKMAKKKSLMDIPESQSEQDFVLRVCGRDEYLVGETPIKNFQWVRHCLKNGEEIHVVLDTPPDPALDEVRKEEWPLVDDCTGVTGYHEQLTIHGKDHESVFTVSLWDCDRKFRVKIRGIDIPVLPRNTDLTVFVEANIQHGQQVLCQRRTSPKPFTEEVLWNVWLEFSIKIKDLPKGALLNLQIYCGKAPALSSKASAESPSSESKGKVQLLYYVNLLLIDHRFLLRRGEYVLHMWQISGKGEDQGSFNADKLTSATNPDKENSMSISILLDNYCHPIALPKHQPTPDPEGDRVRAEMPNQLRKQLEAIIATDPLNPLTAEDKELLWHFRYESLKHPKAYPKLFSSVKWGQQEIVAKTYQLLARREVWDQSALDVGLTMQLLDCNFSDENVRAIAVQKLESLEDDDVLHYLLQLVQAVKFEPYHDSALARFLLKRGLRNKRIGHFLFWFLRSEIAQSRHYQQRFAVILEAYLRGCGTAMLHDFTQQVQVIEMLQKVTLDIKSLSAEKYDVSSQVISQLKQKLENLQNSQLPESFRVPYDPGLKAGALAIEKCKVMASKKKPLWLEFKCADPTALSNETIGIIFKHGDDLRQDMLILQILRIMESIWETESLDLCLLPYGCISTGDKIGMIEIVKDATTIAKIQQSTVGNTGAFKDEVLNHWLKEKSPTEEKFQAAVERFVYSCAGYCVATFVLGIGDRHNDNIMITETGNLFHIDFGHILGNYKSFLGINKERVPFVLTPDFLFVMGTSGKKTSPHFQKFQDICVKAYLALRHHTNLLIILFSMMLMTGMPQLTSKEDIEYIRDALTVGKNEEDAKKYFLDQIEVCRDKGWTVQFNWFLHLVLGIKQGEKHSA

IC50 (PI3Kγ (p110γ)) [µM]	IC50 (PI3Kδ (p110δ/p85α)) [µM]	IC50 [1, 2] [µM]	IC50 ([1]; serum starved THP-1 cells, Trifluoroacetate Salt) [µM]	SMILES
< 0.1	> 2	> 1		C[C@@H](C1CC1)N1Cc2cc(-c3ccnc(-c4ccn[nH]4)c3)cc(S(C)(=O)=O)c2C1=O [Example 15, (S)-5-(2-(1H-Pyrazol-5-yl)pyridin-4-yl)-2-(1-cyclopropylethyl)-7-(methylsulfonyl)isoindolin-1-one, trifluoroacetate salt]
< 0.1	0.5 to 2	< 0.1		Cc1cnc(-c2cc(-c3cc4c(c(S(C)(=O)=O)c3)C(=O)N([C@@H](C)C3CC3)C4)ccn2)[nH]1 [Example 16, (S)-2-(1-Cyclopropylethyl)-5-(2-(5-methyl-1H-imidazol-2-yl)pyridin-4-yl)-7-(methylsulfonyl)isoindolin-1-one, Trifluoroacetate Salt]
< 0.1	> 2	0.5 to 1		C[C@@H](C1CC1)N1Cc2cc(-c3ccnc(-c4ncc[nH]4)c3)cc(S(C)(=O)=O)c2C1=O [Example 17, (S)-5-(2-(1H-Imidazol-2-yl)pyridin-4-yl)-2-(1-cyclopropylethyl)-7-(methylsulfonyl)isoindolin-1-one, trifluoroacetate salt]
< 0.1	> 2	0.1 to 0.5		Cc1nc(-c2cc(-c3cc4c(c(C(O)CO)c3)C(=O)N([C@@H](C)C3CC3)C4)ccn2)[nH]c1C (stereo partly drawn) [Example 18, 2-((S)-1-Cyclopropylethyl)-7-(1,2-dihydroxyethyl)-5-(2-(4,5-dimethyl-1H-imidazol-2-yl)pyridin-4-yl)isoindolin-1-one]
< 0.1	> 2		0.1 to 0.5	Cc1nc(-c2cc(-c3cc4c(c(S(C)(=N)=O)c3)C(=O)N([C@@H](C)C3CC3)C4)ccn2)[nH]c1C (stereo partly drawn) [Example 20, 2-((S)-1-Cyclopropylethyl)-5-(2-(4,5-dimethyl-1H-imidazol-2-yl)pyridin-4-yl)-7-(S-methylsulfonimidoyl)isoindolin-1-one, Trifluoroacetate Salt]
< 0.1	0.5 to 2	0.1 to 0.5		CN=S(C)(=O)c1cc(-c2ccnc(-c3nc(C)c(C)[nH]3)c2)cc2c1C(=O)N([C@@H](C)C1CC1)C2 (stereo partly drawn) [Example 23, 2-((S)-1-Cyclopropylethyl)-5-(2-(4,5-dimethyl-1H-imidazol-2-yl)pyridin-4-yl)-7-(N,S-dimethylsulfonimidoyl)isoindolin-1-one]
